In US11090304B2 (Amgen Inc., priority 2018, dated 2021):

Assays:
[1] = system: Phosphorylation of ERK1/2 in MIA PaCa-2 cells; experiment: Phospho-ERK1/2 MSD assay in MIA PaCa-2 cells; type: cell-based; settings: Homo sapiens, MIA PaCa-2, 2 h, read-out: p-ERK IC50 (2 h; MIA PaCa-2), 2 h compound treatment
Method in brief: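 In the procedure, cells were plated a day ahead at 25,000 per well. Next, a dilution series of compound in growth medium was added for 2 or 4 h. EGF (10 ng/mL) stimulation for 10 min preceded washing and RIPA lysis. Lysate phospho-ERK1/2 was read by MSD, with IC50 derived by 4-parameter logistic analysis.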

[2] = target: GDP-bound KRAS protein (aa 1-169), containing both G12C and C118A amino acid substitutions (Homo sapiens, UniProt P01116, C118A/G12C); experiment: Coupled nucleotide exchange assay (SOS-mediated, AlphaScreen); type: biochemical; settings: 5 min compound pre-incubation
Chain of GDP-bound KRAS protein (aa 1-169), containing both G12C and C118A amino acid substitutions (P01116 1-169 isoform P01116-2 G12C/C118A): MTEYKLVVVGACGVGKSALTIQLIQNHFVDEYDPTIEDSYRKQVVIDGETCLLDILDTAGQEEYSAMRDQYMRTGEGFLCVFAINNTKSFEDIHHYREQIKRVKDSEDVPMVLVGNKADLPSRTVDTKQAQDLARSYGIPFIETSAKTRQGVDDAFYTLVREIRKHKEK

IC50 [1] [nM]	Coupled exchange IC50 (5 min) [2]	SMILES
176	0.161 | nda μM	C=CC(=O)N1CCN(c2nc(=O)n(-c3ncccc3CC(C)C)c3nc(-c4ccccc4F)c(Cl)cc23)[C@@H](C)C1 [Example 54-102, 6-chloro-7-(2-fluorophenyl)-4-((2S)-2-methyl-4-(2-propenoyl)-1-piperazinyl)-1-(3-(2-methylpropyl)-2-pyridinyl) pyrido[2,3-d]pyrimidin-2(1H)-one]
70	0.09 | nda μM	C=CC(=O)N1CCN(c2nc(=O)n(-c3c(C(C)C)cccc3N(C)C)c3nc(-c4ccccc4F)c(Cl)cc23)[C@@H](C)C1 [Example 54-104, 6-chloro-1-(2-(dimethyl-amino)-6-(2-propanyl)phenyl)-7-(2-fluorophenyl)-4-((2S)-2-methyl-4-(2-propenoyl)-1-piperazinyl) pyrido[2,3-d]pyrimidin-2(1H)-one]
89	0.07 | nda μM	C=CC(=O)N1CCN(c2nc(=O)n(-c3c(C)cc(OC)nc3C(C)C)c3nc(-c4ccccc4F)c(Cl)cc23)[C@@H](C)C1 [Example 54-105, 6-chloro-7-(2-fluorophenyl)-1-(6-methoxy-4-methyl-2-(2-propanyl)-3-pyridinyl)-4-((2S)-2-methyl-4-(2-propenoyl)-1-piperazinyl) pyrido[2,3-d]pyrimidin-2(1H)-one]
99	0.159 | nda μM	C=CC(=O)N1CCN(c2nc(=O)n(-c3c(OC)ncnc3C(C)C)c3nc(-c4ccccc4F)c(Cl)cc23)[C@@H](C)C1 [Example 54-107, 6-chloro-7-(2-fluorophenyl)-1-(4-methoxy-6-(2-propanyl)-5-pyrimidinyl)-4-((2S)-2-methyl-4-(2-propenoyl)-1-piperazinyl) pyrido[2,3-d]pyrimidin-2(1H)-one]
3770	0.434 | nda μM	C=CC(=O)N1CCN(c2nc(=O)n(-c3c(C(C)C)nc[nH]c3=O)c3nc(-c4ccccc4F)c(Cl)cc23)[C@@H](C)C1 [Example 54-108, 6-chloro-7-(2-fluorophenyl)-4-((2S)-2-methyl-4-(2-propenoyl)-1-piperazinyl)-1-(6-oxo-4-(2-propanyl)-1,6-dihydro-5-pyrimidinyl) pyrido[2,3-d]pyrimidin-2(1H)-one]
408	0.404 | nda μM	C=CC(=O)N1CCN(c2nc(=O)n(-c3cncnc3C(C)(C)C)c3nc(-c4ccccc4F)c(Cl)cc23)[C@@H](C)C1 [Example 54-110, 6-chloro-7-(2-fluorophenyl)-1-(4-(2-methyl-2-propanyl)-5-pyrimidinyl)-4-((2S)-2-methyl-4-(2-propenoyl)-1-piperazinyl) pyrido[2,3-d]pyrimidin-2(1H)-one]
791	0.417 | nda μM	C=CC(=O)N1CCN(c2nc(=O)n(-c3n[nH]cc3C(C)C)c3nc(-c4ccccc4F)c(Cl)cc23)[C@@H](C)C1 [Example 54-111, 6-chloro-7-(2-fluorophenyl)-4-((2S)-2-methyl-4-(2-propenoyl)-1-piperazinyl)-1-(4-(2-propanyl)-1H-pyrazol-3-yl)pyrido[2,3-d]pyrimidin-2(1H)-one]
222	0.084 | nda μM	C=CC(=O)N1CCN(c2nc(=O)n(-c3cccnc3C(C)(C)C)c3nc(-c4ccccc4F)c(Cl)cc23)[C@@H](C)C1 [Example 54-112, 6-chloro-7-(2-fluorophenyl)-1-(2-(2-methyl-2-propanyl)-3-pyridinyl)-4-((2S)-2-methyl-4-(2-propenoyl)-1-piperazinyl) pyrido[2,3-d]pyrimidin-2(1H)-one]
226	0.124 | nda μM	C=CC(=O)N1CCN(c2nc(=O)n(-c3c(C)noc3C(C)C)c3nc(-c4c(O)cccc4F)c(Cl)cc23)[C@@H](C)C1 [Example 55-1, 6-Chloro-7-(2-fluoro-6-hydroxyphenyl)-1-(3-methyl-5-(2-propanyl)-1,2-oxazol-4-yl)-4-((2S)-2-methyl-4-(2-propenoyl)-1-piperazinyl)pyrido[2,3-d]pyrimidin-2(1H)-one]
918	0.966 | nda μM	C=CC(=O)N1CCN(c2nc(=O)n(-c3c(OC)ncnc3OC)c3nc(-c4c(O)cccc4F)c(Cl)cc23)[C@@H](C)C1 [Example 55-3, 6-chloro-1-(4,6-dimethoxy-5-pyrimidinyl)-7-(2-fluoro-6-hydroxyphenyl)-4-((2S)-methyl-4-(2-propenoyl)-1-piperazinyl)pyrido[2,3-d]pyrimidin-2(1H)-one]
80	0.057 | nda μM	C=CC(=O)N1CCN(c2nc(=O)n(-c3c(C)nc(C)nc3C(C)C)c3nc(-c4c(O)cccc4F)c(Cl)cc23)[C@@H](C)C1 [Example 55-4, 6-chloro-1-(2,4-dimethyl-6-(2-propanyl)-5-pyrimidinyl)-7-(2-fluoro-6-hydroxyphenyl)-4-((2S)-2-methyl-4-(2-propenoyl)-1-piperazinyl)pyrido[2,3-d]pyrimidin-2(1H)-one]
31	0.045 | nda μM	C=CC(=O)N1CCN(c2nc(=O)n(-c3c(C(C)C)nc(C)nc3C(C)C)c3nc(-c4ccccc4F)c(Cl)cc23)[C@@H](C)C1 [Example 55-5, 6-chloro-7-(2-fluorophenyl)-1-(2-methyl-4,6-di(2-propanyl)-5-pyrimidinyl)-4-((2S)-2-methyl-4-(2-propenoyl)-1-piperazinyl)pyrido[2,3-d]pyrimidin-2(1H)-one]
317	0.318 | nda μM	C=CC(=O)N1CCN(c2nc(=O)n(-c3ccccc3CC(F)(F)F)c3nc(-c4c(O)cccc4F)c(Cl)cc23)[C@@H](C)C1 [Example 55-6, 6-chloro-7-(2-fluoro-6-hydroxyphenyl)-4-((2S)-2-methyl-4-(2-propenoyl)-1-piperazinyl)-1-(2-(2,2,2-trifluoroethyl)phenyl)pyrido[2,3-d]pyrimidin-2(1H)-one]
214	0.24 | nda μM	C=CC(=O)N1CCN(c2nc(=O)n(-c3c(C)cccc3CC)c3nc(-c4ccccc4F)c(Cl)cc23)[C@@H](C)C1 [Example 55-9, 6-chloro-1-(2-ethyl-6-methylphenyl)-7-(2-fluorophenyl)-4-((2S)-2-methyl-4-(2-propenoyl)-1-piperazinyl)pyrido[2,3-d]pyrimidin-2(1H)-one]
156	0.123 | nda μM	C=CC(=O)N1CCN(c2nc(=O)n(-c3c(C)ccnc3CC)c3nc(-c4c(O)cccc4F)c(Cl)cc23)[C@@H](C)C1 [Example 55-10, 6-chloro-1-(2-ethyl-4-methyl-3-pyridinyl)-7-(2-fluoro-6-hydroxyphenyl)-4-((2S)-2-methyl-4-(2-propenoyl)-1-piperazinyl)pyrido[2,3-d]pyrimidin-2(1H)-one]
235	0.309 | nda μM	C=CC(=O)N1CCN(c2nc(=O)n(-c3c(C)noc3C(C)C)c3nc(-c4ccccc4F)c(Cl)cc23)[C@@H](C)C1 [Example 55-11, 6-chloro-7-(2-fluoropheny)-1-(3-methyl-5-(2-propanyl)-1,2-oxazol-4-yl)-4-((2S)-2-methyl-4-(2-propenoyl)-1-piperazinyl)pyrido[2,3-d]pyrimidin-2(1H)-one]
